Publication PMC3360951 (Chemistry & biology, 2008)

What was measured:
[1] = test system: CWR22R-H PSA-producing human prostate cancer xenograft; assay: Serum free and total PSA per gram of tumor in CWR22R-H xenograft mice; format: in vivo; conditions: over the 10 day period between PSA measurements; 33 mg/kg/dose x 6
[2] = test system: CWR22R-H PSA-producing human prostate cancer xenograft; assay: Growth of subcutaneous CWR22R-H xenografts; conditions: 33 mg/kg/dose iv x 6 doses (46: equimolar doses); significant only at day 6
[3] = Initial toxicologic studies, intravenous doses in mice; format: in vivo, mouse
PSA [4] = target: T1, PSA (Homo sapiens, UniProt P07288); assay: PSA activity assay, inhibition kinetics by progress curves; format: biochemical
cathepsin D = cathepsin D (Bos taurus, UniProt P80209); assay: Protease specificity: Cathepsin D Assay Kit; format: biochemical; conditions: in words; over a range of concentrations
[5] = target: dipeptidyl peptidase 4 (DPP-4) (Homo sapiens, UniProt P27487); assay: Protease specificity: DPP-4 + AP-AFC; format: biochemical
cathepsin B = cathepsin B (Homo sapiens, UniProt P07858); assay: Protease specificity: cathepsin B + Z-RR-AMC; format: biochemical; conditions: in words; over a range of concentrations
[6] = test system: LNCaP, LAPC-4, CWR22R, C4-2B, DU145, PC3 human prostate cancer cell lines; assay: MTT growth assay, panel of prostate cancer cell lines; format: cell-based; conditions: 100 nM; cells attached 24 hr before exposure
chymotrypsin = assay: Protease specificity: chymotrypsin + suc-AAF-AMC; format: biochemical
elastase = assay: Protease specificity: elastase + suc-AAPV-AMC; format: biochemical
[7] = test system: PSA-negative TSU human bladder cancer cells; assay: Clonal survival assay, TSU; format: cell-based; conditions: under these same conditions (100 nM, 1 μM)
trypsin = assay: Protease specificity: trypsin + Bz-R-AMC; format: biochemical
PSA [8] = target: T1, PSA; conditions: 500 nM inhibitor, 37°C, western blot
[9] = test system: PSA-positive LNCaP human prostate cancer cells; assay: Clonal survival assay, LNCaP; format: cell-based; conditions: compared to vehicle-treated control
PSA [10] = target: T1, PSA; conditions: 1.5 μM inhibitor, 2 nM PSA, 37°C, 1 hr
[11] = compared to full-length Z-SSKLL-H

T1 sequence (P07288 25-261): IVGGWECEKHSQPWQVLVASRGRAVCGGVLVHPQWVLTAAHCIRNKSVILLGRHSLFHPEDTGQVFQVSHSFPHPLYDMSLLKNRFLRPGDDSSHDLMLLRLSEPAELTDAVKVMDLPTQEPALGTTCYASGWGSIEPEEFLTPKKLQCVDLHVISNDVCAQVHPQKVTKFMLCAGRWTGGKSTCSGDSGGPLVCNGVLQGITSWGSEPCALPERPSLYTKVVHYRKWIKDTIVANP
dipeptidyl peptidase 4 (DPP-4), sequence (P27487 whole entry, species assumed): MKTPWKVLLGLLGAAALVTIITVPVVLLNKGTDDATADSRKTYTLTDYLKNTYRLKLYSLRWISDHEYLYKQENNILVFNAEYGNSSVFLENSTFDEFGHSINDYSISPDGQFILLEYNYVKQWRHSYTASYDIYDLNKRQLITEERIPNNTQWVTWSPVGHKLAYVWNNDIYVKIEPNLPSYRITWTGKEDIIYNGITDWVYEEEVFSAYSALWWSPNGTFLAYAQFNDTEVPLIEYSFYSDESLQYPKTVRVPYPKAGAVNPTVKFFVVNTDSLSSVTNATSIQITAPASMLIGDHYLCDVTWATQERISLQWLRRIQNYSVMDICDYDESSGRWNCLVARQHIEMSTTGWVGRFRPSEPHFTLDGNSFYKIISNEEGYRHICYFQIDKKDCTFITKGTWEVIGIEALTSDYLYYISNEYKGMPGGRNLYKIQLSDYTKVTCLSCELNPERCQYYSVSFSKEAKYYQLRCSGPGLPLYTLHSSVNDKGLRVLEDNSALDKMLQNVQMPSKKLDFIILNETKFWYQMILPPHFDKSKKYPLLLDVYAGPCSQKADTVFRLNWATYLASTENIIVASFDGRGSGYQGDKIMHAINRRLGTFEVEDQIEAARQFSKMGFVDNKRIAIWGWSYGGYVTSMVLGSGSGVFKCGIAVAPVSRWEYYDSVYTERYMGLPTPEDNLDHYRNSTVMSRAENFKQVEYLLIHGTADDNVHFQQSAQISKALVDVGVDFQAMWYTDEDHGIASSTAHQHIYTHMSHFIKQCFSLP
cathepsin D, sequence (P80209 45-390): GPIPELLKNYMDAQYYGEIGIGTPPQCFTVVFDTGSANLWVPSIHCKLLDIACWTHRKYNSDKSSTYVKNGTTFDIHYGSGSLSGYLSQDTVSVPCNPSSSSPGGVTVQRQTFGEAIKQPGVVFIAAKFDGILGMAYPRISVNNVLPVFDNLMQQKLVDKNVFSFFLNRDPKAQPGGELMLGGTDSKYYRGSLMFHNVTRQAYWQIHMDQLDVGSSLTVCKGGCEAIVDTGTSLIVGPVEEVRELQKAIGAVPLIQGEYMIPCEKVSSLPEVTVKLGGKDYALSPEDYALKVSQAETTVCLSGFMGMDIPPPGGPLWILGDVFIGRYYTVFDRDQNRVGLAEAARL

Mu-SSKL(boro)L
increase of free PSA levels/gram of tumor [1]: 13%
increase of total PSA levels/gram of tumor [1]: 1.85 fold
effect on tumor volume / tumor growth compared to vehicle control [2]: slight decrease in tumor volume
effect on body weight ([3]; dose of 100 mg/kg, mice): transient weight loss
lethality (fraction of the mice) ([3]; dose of 300 mg/kg): one-third
effects on mouse body weight ([3]; repeat intravenous doses of 33 mg/kg): no significant effects
tolerability ([3]; repeat intravenous doses of 33 mg/kg, mice): well tolerated

Z-KL(boro)L [compound 36]
fold increase in Ki for PSA (PSA [4]; compared to Z-SSKL(boro)L): 90 fold

Z-KL(boro)Nle [compound 37]
fold increase in Ki for PSA (PSA [4]; compared to Z-SSKL(boro)Nle): 59 fold

Z-SKLL-H [compound 8]
fold higher Ki for PSA (PSA [4]; [11]): ~ 6.5 fold

Z-SSKIL-H [compound 4]
fold higher Ki for PSA (PSA [4]; [11]): ~ 6 fold

Z-SSKL(boro)L [compound 39]
inhibition of cathepsin D (cathepsin D): no inhibition
Selectivity ([5]; DPPIV relative to PSA inhibition): >1500
inhibition of DPP-4 ([5]; in words): did not inhibit
inhibition of cathepsin B (cathepsin B): no inhibition
effect on growth of cell lines [6]: marginal effect
fold higher Ki for chymotrypsin than for PSA (chymotrypsin): 60 fold
Ki (chymotrypsin; chymotrypsin): 3.9 µM
Selectivity (chymotrypsin; chymotrypsin relative to PSA inhibition): 60
selectivity for PSA over elastase (elastase): 22 times
Ki (elastase; elastase): 1.39 µM
Selectivity (elastase; elastase relative to PSA inhibition): 22
inhibition of elastase (elastase; in words): Modest inhibition
inhibition of clonal survival [7]: ~ 25%
fold higher Ki for PSA (PSA [4]; compared to Z-SSL(boro)L): ~ 8 fold
Selectivity (PSA [4]; relative to PSA inhibition, PSA itself): 1
inhibition of trypsin (trypsin; in words): did not inhibit
Ki (trypsin; trypsin): > 100 µM
Selectivity (trypsin; trypsin relative to PSA inhibition): >1500
protection of IGFBP3 from degradation by PSA (PSA [8]): protected IGFBP3 from degradation by PSA
inhibition of clonal survival ([9]; 100 nM): ~ 75%
inhibition of clonal survival ([9]; 1 μM): ~ 85%
PSA cleavage of the PTHrP peptide 1-34 (PSA [10]): completely inhibited

Z-SSKL(boro)Nle [compound 38]
fold increase in Ki for PSA (PSA [4]; compared to Z-SSKL(boro)L): ~ 5 fold

Z-SSKLL-CH2OH [compound 26]
inhibition of PSA (PSA [4]; in words): did not inhibit PSA

Z-SSKYL-H [compound 2]
fold higher Ki for PSA (PSA [4]; [11]): ~ 2 fold
